Values quoted from earlier work in patent US8524772B2, “Controlled release of N-acetylcysteine (NAC) for reduction of systemic and/or vascular inflammation” (Tiara Pharmaceuticals, Inc., priority 2008, dated 2013).

Tests used:
LDL = settings: in vitro
[1] = test system: lipid loaded macrophages (foam cells)

SMILES: CC(=O)NC(CS)C(=O)O (stereo not drawn) [NAC, 2-acetamido-3-sulfanylpropanoic acid]
- oxidative modification of LDL (LDL): inhibited
- secondary oxidation of LDL by previously oxidized LDL (LDL): markedly inhibited
- ability of foam cells to degrade vascular matrix [1]: reduce
